In US20220295849A1, “Steviol Glycoside Compositions for Oral Ingestion or Use” (CARGILL, Incorporated, priority 2016, published 2022):
Values belong to the compound of their own block, whether it stands above or below them.

Columns and labels:
[1] = literature; cited from earlier work
[2] = Instantaneous solubility in deionized water at room temperature; assay type: physicochemical; conditions: for instantaneous solubility: water
Description: The composition can optionally be expressed in terms of the concentration of one or more steviol glycoside(s). Beneficially, it has been founds that compound(s) SG101-104 can improve solubility of steviol glycosides in an aqueous solution, and therefore compositions can be prepared having a greater concentration of steviol glycosides in solution. […] Clear solutions without precipitates are considered soluble. Unless indicated otherwise herein, the term “solubility” refers to “equilibrium solubility.”
Instantaneous solubility is determined by mixing steviol glycoside with deionized water vigorously for 10 minutes at room temperature. […] Clear solutions without precipitates are considered soluble.

[3] = Equilibrium solubility (80° C. for 15 minutes, cooled to room temperature, observed up to 4 days); assay type: physicochemical; conditions: for equilibrium solubility (soluble/insoluble): 80° C. 15 minutes, then room temperature up to 4 days; for equilibrium solubility: heated to 80° C. for 15 minutes, room temperature, at least 4 days
Description: The composition can optionally be expressed in terms of the concentration of one or more steviol glycoside(s). Beneficially, it has been founds that compound(s) SG101-104 can improve solubility of steviol glycosides in an aqueous solution, and therefore compositions can be prepared having a greater concentration of steviol glycosides in solution. […] Clear solutions without precipitates are considered soluble. Unless indicated otherwise herein, the term “solubility” refers to “equilibrium solubility.” […]

[4] = literature; cited from earlier work; remark: listed apart in the source
[5] = Sensory evaluation (tasting) of glycoside solutions in reverse osmosis water, Test A and Test B; assay type: in vivo; conditions: for summary of sensory evaluation: summary of Example 5
Experimental: (§1) Glycoside samples (SG101-104) were isolated and purified from fermentation broth, purified Rebs A, B, and D are of leaf origin and Reb M is chemically synthesized. All samples were dissolved in reverse osmosis water at the concentrations indicated. Unsweetened black tea was used in one set of experiments. Approximately 2-3 milliliters of each solution was tasted and sensory evaluations conducted by two individuals. In one set of experiments a third individual also tasted.

[6] = Sensory evaluation (tasting) of glycoside solutions in unsweetened black tea, Test A; assay type: in vivo
Experimental: as §1

[7] = Sucrose equivalent value (SEV) in citric acid buffer; assay type: in vivo; conditions: for SEV: citric acid buffer at pH=3.0; for Sucrose equivalent value / relative sweetness scale-sucrose = 1: 250 ppm in citric buffer, pH = 3.0
Description: Sweetness may be determined by measuring sucrose equivalent values (SEV) using methods and processes well known to those skilled in the art. For example, SEV may be determined by measuring sweetness equivalence to a reference sucrose solution. Typically, taste panelists are trained to detect and scale sweetness of reference sucrose solutions containing between 10 g to 150 g/kg sucrose. A sweetener composition containing one or more glycosides are then tasted at a series of dilutions to determine the concentration of the sweetener composition that is as sweet as a given sucrose reference. For example, if a sweetener composition is as sweet as 50 g/kg of sucrose solution in a citric acid buffer at pH 3.1, then the sweetener composition is assigned a SEV of 5.
For example, SEVs for SG101 and SG102 at 200 ppm are 0.6 and 1.0, respectively; SEV=1.6 for SG101 at 500 ppm and SEV=1.2 at 400 ppm; and SEV=1.5 for SG102 at 400 ppm (as measured in a citric acid buffer at pH=3.0). Thus, at ppm<500, SG101 may be employed as a sensory modifier, and at ppm<400, SG102 may be employed as a sensory modifier in a beverage.

[8] = Test A, 200 ppm in water, three experienced taste testers
[9] = SG compound alone in tea, about 200 ppm (Table 7)

Compound: C=C1C[C@@]23CC[C@H]4[C@@](C)(CCC[C@@]4(C)C(=O)O[C@@H]4O[C@H](CO)[C@@H](O)[C@H](O)[C@H]4O)[C@@H]2CC[C@]1(O[C@@H]1O[C@H](CO)[C@@H](O)[C@H](O[C@@H]2O[C@H](CO)[C@@H](O)[C@H](O)[C@H]2O)[C@H]1O[C@@H]1O[C@H](CO)[C@@H](O)[C@H](O)[C@H]1O)C3 [Reb A, rebaudioside A]
taste properties [1]: has off-taste issues

instantaneous solubility (soluble/insoluble) ([2]; 0.08% in deionized water, clear solution without precipitates = soluble): insoluble
instantaneous solubility (soluble/insoluble) ([2]; 0.10% in deionized water): insoluble
instantaneous solubility (soluble/insoluble) ([2]; 0.15% in deionized water): insoluble
instantaneous solubility (soluble/insoluble) ([2]; 0.20% in deionized water): insoluble
instantaneous solubility [2]: < 0.08%
instantaneous solubility ([2]; listed as rebaudioside D): less than 0.08%
equilibrium solubility (soluble/insoluble) ([3]; 0.08%): soluble
equilibrium solubility (soluble/insoluble) ([3]; 0.10%): insoluble
equilibrium solubility (soluble/insoluble) ([3]; 0.15%): insoluble
equilibrium solubility (soluble/insoluble) ([3]; 0.20%): insoluble
equilibrium solubility [3]: 0.08%
Compound: C=C1C[C@@]23CC[C@H]4[C@@](C)(CCC[C@@]4(C)C(=O)O[C@@H]4O[C@H](CO)[C@@H](O)[C@H](O)[C@H]4O[C@@H]4O[C@H](CO)[C@@H](O)[C@H](O)[C@H]4O)[C@@H]2CC[C@]1(O[C@@H]1O[C@H](CO)[C@@H](O)[C@H](O[C@@H]2O[C@H](CO)[C@@H](O)[C@H](O)[C@H]2O)[C@H]1O[C@@H]1O[C@H](CO)[C@@H](O)[C@H](O)[C@H]1O)C3 [Reb D, rebaudioside D]
taste properties [1]: slow onset of sweetness and was very clean
times sweeter than sucrose [1]: 200-220 times
aqueous solubility [4]: low solubility in water at room temperature

instantaneous solubility (soluble/insoluble) ([2]; 0.10% in deionized water): soluble
instantaneous solubility (soluble/insoluble) ([2]; 0.13% in deionized water): soluble
instantaneous solubility (soluble/insoluble) ([2]; 0.20% in deionized water): insoluble
instantaneous solubility (soluble/insoluble) ([2]; 0.30% in deionized water): insoluble
instantaneous solubility [2]: at least 0.13%
instantaneous solubility ([2]; listed as rebaudioside M): about 0.13%
equilibrium solubility (soluble/insoluble) ([3]; 0.10%): soluble
equilibrium solubility (soluble/insoluble) ([3]; 0.13%): soluble
equilibrium solubility (soluble/insoluble) ([3]; 0.20%): soluble
equilibrium solubility (soluble/insoluble) ([3]; 0.30%): insoluble
equilibrium solubility [3]: at least 0.2%
equilibrium solubility ([3]; listed as rebaudioside M): about 0.2%
Compound: C=C1C[C@@]23CC[C@H]4[C@@](C)(CCC[C@@]4(C)C(=O)O[C@@H]4O[C@H](CO)[C@@H](O)[C@H](O[C@@H]5O[C@H](CO)[C@@H](O)[C@H](O)[C@H]5O)[C@H]4O[C@@H]4O[C@H](CO)[C@@H](O)[C@H](O)[C@H]4O)[C@@H]2CC[C@]1(O[C@@H]1O[C@H](CO)[C@@H](O)[C@H](O[C@@H]2O[C@H](CO)[C@@H](O)[C@H](O)[C@H]2O)[C@H]1O[C@@H]1O[C@H](CO)[C@@H](O)[C@H](O)[C@H]1O)C3 [Reb M, rebaudioside M]
sensory comments [5, 8]: Typical mid-sweet for Reb M, fairly well rounded, quick rise, some tailing, some bitter
sensory comments ([5]; Test A, 400 ppm in water): Higher sweet, faster onset than 200 ppm, cotton candy sweetness—skews to HFCS longer linger, sharper bitterness—but not oppressing sweetness
sensory comments ([5]; Test B, Reb M alone in water, concentration not stated (200-398 ppm prepared)): clean, sweet, spiky sweetness
sensory comments ([6]; Reb M alone in tea, concentration not stated (200.4 and 401.0 ppm prepared)): Nice subtle sweetness, feels like sugar, but with long linger very good
taste properties [1]: has higher sweetness intensity and is more potent than other steviol glycosides
aqueous solubility [4]: poor aqueous solubility and dissolution qualities in beverage formulations

Compound: C=C1C[C@@]23CCC4[C@](C)(C(=O)OC5OC(CO)C(O)C(O)C5OC5OC(CO)C(O)C(O)C5O)CCC[C@@]4(C)[C@@H]2CCC1(OC1OC(COC2OC(CO)C(O)C(O)C2O)C(O)C(OC2OC(CO)C(O)C(O)C2O)C1OC1OC(CO)C(O)C(O)C1O)C3 (stereo partly drawn) [SG101]
sensory comments [5, 8]: not sweet, astringent, cloying—mouth drying on the tongue
summary of sensory evaluation [5]: less sweet than SG103 and SG104
sensory comments [6, 9]: Zero sweetness, seems less than in water, naked tea
SEV ([7]; 200 ppm): 0.6
SEV ([7]; 400 ppm): 1.2
SEV ([7]; 500 ppm): 1.6

Compound: C=C1C[C@@]23CCC4[C@](C)(C(=O)OC5OC(CO)C(O)C(OC6OC(CO)C(O)C(O)C6O)C5OC5OC(CO)C(O)C(O)C5O)CCC[C@@]4(C)[C@@H]2CCC1(OC1OC(COC2OC(CO)C(O)C(O)C2O)C(O)C(OC2OC(CO)C(O)C(O)C2O)C1OC1OC(CO)C(O)C(O)C1O)C3 (stereo partly drawn) [SG102]
sensory comments [5, 8]: a bit sweeter than 1-1, sweetness does have quick onset
summary of sensory evaluation [5]: less sweet than SG103 and SG104
sensory comments [6, 9]: Not sweet, slightly less astringent, some additional roundedness
SEV ([7]; 200 ppm): 1.0
SEV ([7]; 400 ppm): 1.5

Compound: C=C1C[C@@]23CCC4[C@](C)(C(=O)OC5OC(CO)C(O)C(O)C5OC5OC(CO)C(O)C(O)C5O)CCC[C@@]4(C)[C@@H]2CCC1(OC1OC(CO)C(O)C(OC2OC(COC4OC(CO)C(O)C(O)C4O)C(O)C(O)C2O)C1OC1OC(CO)C(O)C(O)C1O)C3 (stereo partly drawn) [SG103]
sensory comments [5, 8]: as sweet or sweeter than 200 ppm Reb M, more sucrosey, sugary quality characteristics (high fructose corn syrup (HFCS), cotton candy notes) are reminiscent of Reb M at 400 ppm but not as sweet, “fuller” feeling
summary of sensory evaluation [5]: good sole sweeteners
sensory comments [6, 9]: Slower onset than Reb M by itself, not as sweet as Reb M, slightly more licorice aftertaste
Sucrose equivalent value [7]: 4.8
relative sweetness scale-sucrose = 1 [7]: 192X

Compound: C=C1C[C@@]23CCC4[C@](C)(C(=O)OC5OC(CO)C(O)C(OC6OC(CO)C(O)C(O)C6O)C5OC5OC(CO)C(O)C(O)C5O)CCC[C@@]4(C)[C@@H]2CCC1(OC1OC(CO)C(O)C(OC2OC(COC4OC(CO)C(O)C(O)C4O)C(O)C(O)C2O)C1OC1OC(CO)C(O)C(O)C1O)C3 (stereo partly drawn) [SG104]
sensory comments [5, 8]: as sweet or sweeter than 200 ppm Reb M, more rounded sweetness, enhanced sugar quality effects (sensations reminiscent of sucrose, vanilla), “fuller” feeling
summary of sensory evaluation [5]: good sole sweeteners
sensory comments [6, 9]: As sweet as Reb M, very sucrosey compared to Reb M, a little back end licorice
Sucrose equivalent value [7]: 6.5
relative sweetness scale-sucrose = 1 [7]: 260X
